Laboratory results as given in patent US10471041B2, “Use of geninstein” (DSM IP ASSETS B.V., priority 2007, dated 2019).

Tested on: rats treated with scopolamine
Assay: Zone Quick test (phenol red thread) of tear production in the scopolamine dry eye model
Type: in vivo, rat
Settings: FIG. 1
Procedure: Another well-accepted model of dry eye is the scopolamine model which utilizes subcutaneous injections (5 mg in 10 ml) or dermal patch or gel dosage (Durson et al., Invest. Ophthalmol. Vis. Sci. 43: 632-8, 2002) of scopolamine to induce a dry eye condition in rats by parasympatholytic blockade of natural tear production.
These models and their variations were used to test the efficacy of genistein, delivered as a feed admixture (50 mg/kg low dose and 250 mg/kg high dose) to ameliorate the effects of dry eye. In addition, one test group served as a control group, receiving vehicle feed only with no added isoflavonoids.
Tear volume was assessed by using absorptive threads impregnated with Phenol Red (zone quick test). Outcome measures are according to criteria published in test instructions as well as comparison with control animal results.
Tear volume was monitored by the Zone Quick test. This in-life test is a standardized measure of tear production. It consists of a thread impregnated with phenol red which causes a colour change of the length of the thread that becomes wet from tears when the thread is applied to the lacrimal lake. The length (in mm) of the wetted thread is proportional to the tear volume produced.
0-CON, 0-SCOP: each 8 control animals (not on scopolamine or on scopolamine)
50-SCOP: 8 animals (on scopolamine) suppl. with 50 ppm genistein […]

For `O=c1c(-c2ccc(O)cc2)coc2cc(O)cc(O)c12` [genistein, 4′,5,7-trihydroxy-isoflavone], the “dose dependence of tear volume restoration” value (250 vs 50 genistein supplementation groups) was “more pronounced in the group supplemented with 250 mg than in that with 50 mg” and the “tear volume (Zone Quick test, length of wetted thread)” value (genistein as feed admixture, 50 or 250 ppm, supplementation 2.5 weeks (MIDTEST) and 5.0 weeks (FINALTEST), compared with control animals) was “restored their tear volume almost to control values”.
